Laboratory results taken from patent US20060293307A1, “Oxazolidinone derivatives as antimicrobials” (priority 2002, published 2006).
Converted amounts (≈) assume the structure as drawn.

Experiments:
Assay in all cases: MIC, agar incorporation method
S. aureus SG 511 = format: cell-based, Staphylococcus aureus; conditions: S. No. 3, S. aureus SG 511
S. aureus (MRSA) 15187 = format: cell-based, Staphylococcus aureus; conditions: S. No. 4, S. aureus (MRSA) 15187
S. aureus (MRSA) 21299 = format: cell-based, Staphylococcus aureus; conditions: S. No. 5, S. aureus (MRSA) 21299
[1] = tested on: S. aureus (MRSA 33) Cipro R; format: cell-based, Staphylococcus aureus; conditions: S. No. 7, S. aureus (MRSA 33) Cipro R
[2] = tested on: S. epidermidis (MRSE) 23760; format: cell-based, Staphylococcus epidermidis; conditions: S. No. 11, S. epidermidis (MRSE) 23760
E. faecalis 21777 = format: cell-based; conditions: S. No. 18, E. faecalis 21777
E. faecalis SP 346 (VRE) = format: cell-based; conditions: S. No. 20, E. faecalis SP 346 (VRE)
E. faecium 398(VRE) = format: cell-based, Enterococcus faecium; conditions: S. No. 22, E. faecium 398(VRE)
Salmonella 205 = format: cell-based; conditions: S. No. 26, Salmonella 205
Method: The compounds of the invention display antibacterial activity when tested by the agar incorporation method. The following minimum inhibitory concentrations (μg/ml) were obtained for representative compounds of the invention which are given below in the following tables.
Briefly, the compounds were dissolved in DMSO and doubling dilution of the compounds were incorporated into Meer Hilton agar before solidification. Inoculum was prepared by suspending 4 to 5 colonies into 5 ml of normal saline solution and adjusting the turbidity to 0.5 Macfarland turbidity standard tables (1.5×10^8 CFU/ml), after appropriate dilutions, 10^4 CFU/spot was transfered into the surface of dried plate and incubated for 18 hours (24 hours for MRSN studies). The concentration showing no growth of the inoculated culture was recorded as the MIC. Appropriate ATCC standard strains were simultaneously tested and result recorded only when the MIC's against standard antibiotics were within the acceptable range.

E. durans 581 = format: cell-based; conditions: S. No. 24, E. durans 581
K. oxytoca 49131 = format: cell-based; conditions: S. No. 27, K. oxytoca 49131
P. aeruginosa ATCC 27853 = format: cell-based; conditions: S. No. 28, P. aeruginosa ATCC 27853
[3] = tested on: Serratia marcescens 12999; format: cell-based; conditions: S. No. 29, Serratia marcescens 12999
S. pneumoniae AB-2 = format: cell-based, Streptococcus pneumoniae; conditions: S. No. 31, S. pneumoniae AB-2
S. pneumoniae AB4 = format: cell-based, Streptococcus pneumoniae; conditions: S. No. 33, S. pneumoniae AB4
S. pneumoniae AB 10 = format: cell-based, Streptococcus pneumoniae; conditions: S. No. 35, S. pneumoniae AB 10
S. pneumoniae 217 = format: cell-based, Streptococcus pneumoniae; conditions: S. No. 38, S. pneumoniae 217
S. pneumoniae AB 16 = format: cell-based, Streptococcus pneumoniae; conditions: S. No. 39, S. pneumoniae AB 16
S. pneumoniae AB 21 = format: cell-based, Streptococcus pneumoniae; conditions: S. No. 41, S. pneumoniae AB 21
S. pneumoniae AB 23 = format: cell-based, Streptococcus pneumoniae; conditions: S. No. 43, S. pneumoniae AB 23
S. pneumoniae AB 25 = format: cell-based, Streptococcus pneumoniae; conditions: S. No. 45, S. pneumoniae AB 25
S. pneumoniae AB 29 = format: cell-based, Streptococcus pneumoniae; conditions: S. No. 46, S. pneumoniae AB 29
S. pneumoniae AB 30 = format: cell-based, Streptococcus pneumoniae; conditions: S. No. 47, S. pneumoniae AB 30
S. pneumoniae ATCC 49619 = format: cell-based, Streptococcus pneumoniae; conditions: S. No. 48, S. pneumoniae ATCC 49619
S. pneumoniae AB 34 = format: cell-based, Streptococcus pneumoniae; conditions: S. No. 49, S. pneumoniae AB 34
S. pyogenes 19615 = format: cell-based, Streptococcus pyogenes; conditions: S. No. 51, S. pyogenes 19615
S. pyogenes 20361 = format: cell-based, Streptococcus pyogenes; conditions: S. No. 53, S. pyogenes 20361
S. pneumoniae 1251 = format: cell-based, Streptococcus pneumoniae; conditions: S. No. 54, S. pneumoniae 1251
S pneumoniae 1294. = format: cell-based, Streptococcus pneumoniae; conditions: S. No. 55, S pneumoniae 1294.
S. pneumoniae 1256 = format: cell-based, Streptococcus pneumoniae; conditions: S. No. 56, S. pneumoniae 1256
S. pneumoniae 1275 = format: cell-based, Streptococcus pneumoniae; conditions: S. No. 57, S. pneumoniae 1275
Moraxella cata. M2 = format: cell-based; conditions: S. No. 59, Moraxella cata. M2

(S)—N-[[3-[-3-Fluoro-4-[(5-nitro-2-thienyl)-3-methyl-1-piperazinyl]phenyl]-2-oxo-5-oxazolidinyl]methyl]acetamide [Compound No. 10]
MIC (S. aureus SG 511): 0.5 µg/mL
MIC (S. aureus (MRSA) 15187): 1 µg/mL
MIC (S. aureus (MRSA) 21299): 1 µg/mL
MIC [1]: 1 µg/mL
MIC [2]: 0.5 µg/mL
MIC (E. faecalis 21777): 1 µg/mL
MIC (E. faecalis SP 346 (VRE)): 1 µg/mL
MIC (E. faecium 398(VRE)): 0.5 µg/mL
MIC (Salmonella 205): >8 µg/mL
MIC (E. durans 581): 0.5 µg/mL
MIC (K. oxytoca 49131): >8 µg/mL
MIC (P. aeruginosa ATCC 27853): >8 µg/mL
MIC [3]: >8 µg/mL
MIC (S. pneumoniae AB-2): 0.5 µg/mL
MIC (S. pneumoniae AB4): 0.5 µg/mL
MIC (S. pneumoniae AB 10): 0.25 µg/mL
MIC (S. pneumoniae 217): 0.5 µg/mL
MIC (S. pneumoniae AB 16): 0.5 µg/mL
MIC (S. pneumoniae AB 21): 0.5 µg/mL
MIC (S. pneumoniae AB 23): 0.5 µg/mL
MIC (S. pneumoniae AB 25): 0.5 µg/mL
MIC (S. pneumoniae AB 29): 0.5 µg/mL
MIC (S. pneumoniae AB 30): 0.25 µg/mL
MIC (S. pneumoniae ATCC 49619): 0.5 µg/mL
MIC (S. pneumoniae AB 34): 1 µg/mL
MIC (S. pyogenes 19615): 0.5 µg/mL
MIC (S. pyogenes 20361): 0.5 µg/mL
MIC (S. pneumoniae 1251): 0.5 µg/mL
MIC (S pneumoniae 1294.): 0.5 µg/mL
MIC (S. pneumoniae 1256): 0.25 µg/mL
MIC (S. pneumoniae 1275): 0.25 µg/mL
MIC (Moraxella cata. M2): 2 µg/mL

O=C(NC[C@H]1CN(c2ccc(N3CCN(c4ccc([N+](=O)[O-])s4)CC3)c(F)c2)C(=O)O1)C(Cl)Cl [compound 9, (S)—N-[[3-[-3-Fluoro-4-[N-1-(5-nitro-2-thienyl)-piperazinyl]phenyl] -2-oxo-5-oxazolidinyl]methyl]dichloroacetamide]
MIC (S. aureus SG 511): 0.5 µg/mL (≈ 0.939 µM)
MIC (S. aureus (MRSA) 15187): 1 µg/mL (≈ 1.88 µM)
MIC (S. aureus (MRSA) 21299): 1 µg/mL (≈ 1.88 µM)
MIC [1]: 1 µg/mL (≈ 1.88 µM)
MIC [2]: 0.5 µg/mL (≈ 0.939 µM)
MIC (E. faecalis 21777): 0.5 µg/mL (≈ 0.939 µM)
MIC (E. faecalis SP 346 (VRE)): 0.5 µg/mL (≈ 0.939 µM)
MIC (E. faecium 398(VRE)): 0.5 µg/mL (≈ 0.939 µM)
MIC (Salmonella 205): >8 µg/mL
MIC (E. durans 581): 0.5 µg/mL (≈ 0.939 µM)
MIC (K. oxytoca 49131): >8 µg/mL
MIC (P. aeruginosa ATCC 27853): >8 µg/mL
MIC [3]: >8 µg/mL
MIC (S. pneumoniae AB-2): 0.25 µg/mL (≈ 0.47 µM)
MIC (S. pneumoniae AB4): 0.25 µg/mL (≈ 0.47 µM)
MIC (S. pneumoniae AB 10): 0.25 µg/mL (≈ 0.47 µM)
MIC (S. pneumoniae 217): 0.25 µg/mL (≈ 0.47 µM)
MIC (S. pneumoniae AB 16): 0.25 µg/mL (≈ 0.47 µM)
MIC (S. pneumoniae AB 21): 0.25 µg/mL (≈ 0.47 µM)
MIC (S. pneumoniae AB 23): 0.25 µg/mL (≈ 0.47 µM)
MIC (S. pneumoniae AB 25): 0.25 µg/mL (≈ 0.47 µM)
MIC (S. pneumoniae AB 29): 0.25 µg/mL (≈ 0.47 µM)
MIC (S. pneumoniae AB 30): 0.25 µg/mL (≈ 0.47 µM)
MIC (S. pneumoniae ATCC 49619): 0.25 µg/mL (≈ 0.47 µM)
MIC (S. pneumoniae AB 34): 0.5 µg/mL (≈ 0.939 µM)
MIC (S. pyogenes 19615): 0.5 µg/mL (≈ 0.939 µM)
MIC (S. pyogenes 20361): 0.5 µg/mL (≈ 0.939 µM)
MIC (S. pneumoniae 1251): 0.25 µg/mL (≈ 0.47 µM)
MIC (S pneumoniae 1294.): 0.5 µg/mL (≈ 0.939 µM)
MIC (S. pneumoniae 1256): 0.25 µg/mL (≈ 0.47 µM)
MIC (S. pneumoniae 1275): 0.25 µg/mL (≈ 0.47 µM)
MIC (Moraxella cata. M2): 1 µg/mL (≈ 1.88 µM)

C[C@H](Cl)C(=O)NCC1CN(c2ccc(N3CCN(c4ccc([N+](=O)[O-])s4)CC3)c(F)c2)C(=O)O1 (stereo partly drawn) [Compound No. 7, (S)—N-[[3-[3-Fluoro-4-[N-1-{4-(5-nitro-2-thienyl)piperazinyl}]-phenyl]-2-oxo-5-oxazolidinyl]-methyl]-2-chloro-propionamide]
MIC (S. aureus SG 511): >8 µg/mL
MIC (S. aureus (MRSA) 15187): >8 µg/mL
MIC (S. aureus (MRSA) 21299): >8 µg/mL
MIC [1]: >8 µg/mL
MIC [2]: 4 µg/mL (≈ 7.81 µM)
MIC (E. faecalis 21777): >8 µg/mL
MIC (E. faecalis SP 346 (VRE)): >8 µg/mL
MIC (E. faecium 398(VRE)): 8 µg/mL (≈ 15.6 µM)
MIC (Salmonella 205): >8 µg/mL
MIC (E. durans 581): 8 µg/mL (≈ 15.6 µM)
MIC (K. oxytoca 49131): >8 µg/mL
MIC (P. aeruginosa ATCC 27853): >8 µg/mL
MIC [3]: >8 µg/mL
MIC (S. pneumoniae AB-2): 0.5 µg/mL (≈ 0.977 µM)
MIC (S. pneumoniae AB4): 0.5 µg/mL (≈ 0.977 µM)
MIC (S. pneumoniae AB 10): 0.5 µg/mL (≈ 0.977 µM)
MIC (S. pneumoniae 217): 1 µg/mL (≈ 1.95 µM)
MIC (S. pneumoniae AB 16): 1 µg/mL (≈ 1.95 µM)
MIC (S. pneumoniae AB 21): 1 µg/mL (≈ 1.95 µM)
MIC (S. pneumoniae AB 23): 1 µg/mL (≈ 1.95 µM)
MIC (S. pneumoniae AB 25): 0.5 µg/mL (≈ 0.977 µM)
MIC (S. pneumoniae AB 29): 0.5 µg/mL (≈ 0.977 µM)
MIC (S. pneumoniae AB 30): 0.5 µg/mL (≈ 0.977 µM)
MIC (S. pneumoniae ATCC 49619): 0.5 µg/mL (≈ 0.977 µM)
MIC (S. pneumoniae AB 34): 4 µg/mL (≈ 7.81 µM)
MIC (S. pyogenes 19615): 2 µg/mL (≈ 3.91 µM)
MIC (S. pyogenes 20361): 2 µg/mL (≈ 3.91 µM)
MIC (S. pneumoniae 1251): 1 µg/mL (≈ 1.95 µM)
MIC (S pneumoniae 1294.): 2 µg/mL (≈ 3.91 µM)
MIC (S. pneumoniae 1256): 0.25 µg/mL (≈ 0.488 µM)
MIC (S. pneumoniae 1275): 0.25 µg/mL (≈ 0.488 µM)
MIC (Moraxella cata. M2): >8 µg/mL
